In publication PMC8750417, “Intracellular Amplifiers of Reactive Oxygen Species Affecting Mitochondria as Radiosensitizers” (Cancers, 2021):

Tests used:
[1] = test system: mononuclear cells (MNCs) from healthy donors; test: Viability of primary mononuclear cells (CellTiter Glo); type: cell-based, human; settings: primary MNC from six healthy donors, 48 h
Method: Afterwards, the cells were washed with DPBS and a fresh portion of RPMI 1640 medium containing 5% FBS, 1% L-glutamine and 1% penicillin/streptomycin (1 mL) was added.
The fluorescence images were taken with a Zeiss Axio Vert.A1 fluorescence microscope […]
For SBLF9 the same procedure was applied except that Ham's F-12K (Kaighn's)-Medium supplemented with 15 % FBS, 2 % non-essential amino acid mix, and 1 % penicillin/streptomycin was used for cell seeding and incubation with the prodrug or the carrier. A cell density of 40 cells/µL was used.
Determination of viability of primary cancer (CLL) and normal (MNC) cells in the […]
Clinical samples from chronic lymphocytic leukemia (CLL) patients (N=6, CLL cells) and healthy donors (N=6; peripheral blood mononuclear cells, MNCs) were collected at the University Hospital Heidelberg, Germany. Informed consent was obtained in accordance with the Declaration of Helsinki. Sample collection and analysis was approved by the ethics committee of the University of Heidelberg (S-254/2016). Blood was separated by a Ficoll gradient (GE Healthcarey), and cells were cryopreserved. […]
4x10^4 cells per well. […] Cell viability was assessed by quantification of ATP (CellTiter Glo®, Promega) 48 hours after drug application.
Luminescence was measured on a Tecan Infinite F200 Microplate Reader. Viability was calculated as % of solvent (DMSO) treated control. […]

[2] = test system: A2780 cells; test: Generation of nitric oxide (DAF-FM diacetate), A2780; type: cell-based, human; settings: 2 h
Method: with CO2 (5%) at 37 °C for 2 h. Next, the cells were detached from the culture dish using trypsin/EDTA (0.025%/0.01%, v/v, 200 µL). The cells were re-suspended in RPMI 1640 medium containing 5% FBS, 1% L-glutamine and 1% penicillin/streptomycin (200 µL).
Finally, the fluorescence of live cells (λex = 488 nm, λem = 530 nm) in the suspensions was determined by using flow cytometry (Figure 4C).
Figure S61. Representative flow cytometric histograms used for setting up Figure 4C.
Generation of nitric oxide in A2780 cells
A2780 cells were seeded into 96 well culture plates at the same cell concentration and in the same medium as applied for the assay for monitoring mROS described above. On the day of the experiment, the cells were washed twice with DPBS buffer and the medium was replaced with HBSS (100 μL). […]
The cells were re-suspended in RPMI 1640 medium containing 5% FBS, 1% L-glutamine and 1% penicillin/streptomycin (100 µL). Finally, the fluorescence of live cells (λex = 488 nm, λem = 530 nm) in the suspensions was determined by using flow cytometry (Figure […]
Figure S62. Fluorescence of DAF-FM diacetate-loaded A2780 cells treated either with 2c or the carrier. *: p<0.05, Student’s t test. […]

[3] = test system: A2780 cells; parameters: method as in PMID 30035345; settings: relative to 4-(N-ferrocenyl-N-benzylaminocarbonyloxymethyl)-phenylboronic acid pinacol ester; cited from earlier work

SMILES	IC50 [1] [µM]	level of NO vs carrier [2]	efficacy of cellular uptake relative to reference NAAF prodrug [3]
CC1(C)OB(c2ccc(COC(=O)N(Cc3cn(Cc4ccc(Cn5cc(Cc6ccccc6)nn5)cc4)nn3)[c-]3cccc3)cc2)OC1(C)C.[Fe+2].c1cc[cH-]c1 [2c]	12 ± 3	higher than that in A2780 cells treated with DMSO (carrier) only	–
CCOC(=O)CCCCCn1cc(CN(C(=O)OCc2ccc(B3OC(C)(C)C(C)(C)O3)cc2)[c-]2cccc2)nn1.[Fe+2].c1cc[cH-]c1 [compound 1]	–	–	ca. 50%
